Results reported in PMC9600394, “Efficient Synthesis with Green Chemistry Approach of Novel Pharmacophores of Imidazole-Based Hybrids for Tumor Treatment: Mechanistic Insights from In Situ to In Silico” (Cancers, 2022).
Like-named read-outs stand apart in the source and are kept apart here.

Assays:
MDA-MB-231 = experiment: MTT assay in breast cancer cell line MDA-MB-231; settings: for inhibition at 100 µM: read-out: MDA-MB-231 %Inhibition; for viability at 100 µM: read-out: MDA-MB-231 %Viability
Procedure: (§1) This cell line is ER, PR, and E-cadherin negative, and it lacks the growth factor receptor HER2. […] The normal human breast cell line (MCF-10A) was used as a control in the study. Cells were cultured in DMEM supplemented with 10% FBS and 1% antibiotics (100 U/mL penicillin). […] After 48 h of incubation, 20 μL of MTT solution (5 mg/mL) was pipetted into each well and incubated for another 4 h. The medium was later discarded, and the formazan precipitate was dissolved in DMSO. The absorbance of the mixtures was determined by a microplate reader at 570 nm. All the experiments were performed in triplicate, and the cytotoxicity was expressed as a percentage of cell viability and compared with untreated control cells [33]. % Viability=Absorbance of sample/Absorbance of control×100
(§2) The dose–response and IC50 values were calculated by IBM SPSS Statistics 26 software.
(§3) Simultaneously, the normal human breast epithelial cell line (MCF-10A) was used as a positive control. The MTT [3-(4,5-dimethylthiazol-2-yl)-2,5-diphenyltetrazolium bromide] assay was used to determine the decrease in cancer cell viability induced by the synthesized hybrids.

hCA-IX [1] = target: T1, hCA-IX (Homo sapiens, UniProt Q16790); experiment: In vitro inhibition of human CA-IX (p-nitrophenyl acetate, 96-well plate); type: biochemical; settings: for IC50 / hCA-IX IC50 ± SEM: purified enzyme, substrate p-nitrophenyl acetate, 25 °C, µM from b1; for IC50: unit inferred, read-out: hCA-IX IC50 ± SEM; for hCA-IX IC50 ± SEM: unit not given; for Selectivity / specificity for hCA-IX (in words): hCA-IX versus hCA-II
hCA-II [2] = target: T2, hCA-II (Homo sapiens, UniProt P00918); experiment: Enzyme kinetic (mechanistic) studies on hCA-II; settings: for Type of Inhibition (hCA-II): Lineweaver–Burk / Dixon plots; for Vmaxapp (hCA-II): maximum velocity of the enzyme in the presence of inhibitors
Procedure: In vitro inhibition of human CA (CA-II, and CA-IX) was performed in 96-well plate. Each well of the 96-well plate comprised 20 µL of the test compound (0.5 mM), 20 µL of the purified enzyme (0.1 mg/mL), 140 µL of the assay buffer (HEPES–tris, 20 mM), and 20 µL of the substrate (p-Nitrophenyl acetate; prepared in methanol), making a final volume of 200 µL. The assay procedure started with the incubation of the test compound, desired enzyme, and 140 µL of buffer for 15 min. […] All the in vitro testing results, e.g., percent inhibition, and the IC50 values were analyzed by EZ-Fit, which is a curve-fitting enzyme kinetics program (Perrella Scientific Inc., Amherst, MA, USA). All kinetic graphs were plotted by GraFit program (Horley, UK). Different parameters and their values, such as the values of intercepts, slopes, correlation coefficients, and their standard error means (SEMs), were calculated by the nonlinear regression analysis using the same program (GraFit program).
Certain parameters of the assay were changed in order to determine the mode of inhibition of compounds against specific enzymes.

MCF-10A = experiment: MTT assay in normal breast cell line MCF-10A; settings: for inhibition at 100 µM / IC50: Homo sapiens, MCF-10A, 48 h; for inhibition at 100 µM: read-out: MCF-10A %Inhibition; for IC50: read-out: MCF-10A IC50
Procedure: as §1, §2, §3

[3] = MTT assay in normal breast cell line MCF-10A; settings: human
Procedure: as §1, §2, §3

hCA-II [4] = target: T2, hCA-II; experiment: In vitro inhibition of human CA-II (p-nitrophenyl acetate, 96-well plate); type: biochemical; settings: for Inhibitory activity for hCA-II in words: compared to acetazolamide; for hCA-II IC50 ± SEM: unit not given
hCA-IX [5] = target: T1, hCA-IX; experiment: Enzyme kinetic (mechanistic) studies on hCA-IX; type: biochemical; settings: for Type of Inhibition (hCA-IX): Lineweaver–Burk / Dixon plots; for Kmapp (hCA-IX): Michaelis–Menten constant in the presence of inhibitors; for Vmaxapp (hCA-IX): maximum velocity of the enzyme in the presence of inhibitors
[6] = Homo sapiens, MDA-MB-231, 48 h, read-out: MDA-MB-231 IC50, 48 h, MTT
[7] = purified enzyme, substrate p-nitrophenyl acetate, 25 °C, µM from b1
[8] = read-out: MDA-MB-231 IC50, 48 h, MTT

Row | SMILES | inhibition at 100 µM (MDA-MB-231; Homo sapiens, MDA-MB-231, 48 h) | viability at 100 µM (MDA-MB-231; Homo sapiens, MDA-MB-231, 48 h) | IC50 (MDA-MB-231; [6]) | IC50 (hCA-IX [1]) | melting point | inhibition at 100 µM (MCF-10A) | IC50 (MCF-10A) | Inhibitory activity for hCA-II in words (hCA-II [4]) | viability at 48 h, 100 µM [3] | IC50 (hCA-II [4]) | Ki (hCA-IX [5]) | Type of Inhibition (hCA-IX) (hCA-IX [5]) | Kmapp (hCA-IX) (hCA-IX [5]) | Vmaxapp (hCA-IX) (hCA-IX [5]) | hCA-II IC50 ± SEM (hCA-II [4]; [7]) | IC50 (MDA-MB-231; [8]) | Selectivity / specificity for hCA-IX (in words) (hCA-IX [1]) | other results
1 | Cc1ncc(C2=C(O)CCCC2=O)n1CCO [Compound 1, 3-hydroxy-2-(1-(2-hydroxyethyl)-2-methyl-1H-imidazol-5-yl) cyclohex-2-en-1-one] | 51.4% | 48.6% | 96 µM | 23 ± 0.5 µM | 186 to 190 °C | 13.2% | > 100 µM | potent inhibitory activity | – | – | – | – | – | – | – | – | – | Inhibitory activity for hCA-IX in words (hCA-IX [1]; compared to the standard acetazolamide): comparatively weak activity; Ki (hCA-II [2]): 9.14 ± 0.08 µM; Type of Inhibition (hCA-II) (hCA-II [2]): competitive inhibition; Vmaxapp (hCA-II) (hCA-II [2]): 19.32; viability at 48 h, 100 µM ([3]; MCF-10A normal breast epithelial cells): 86.8%; IC50 (hCA-II [4]; purified enzyme, substrate p-nitrophenyl acetate, 25 °C, unit inferred, µM from b1, read-out: hCA-II IC50 ± SEM): 11.6 ± 0.2 µM
2 | Cc1ncc(-c2c(O)[nH]c(=O)[nH]c2=O)[nH]1 [Compound 3, 6-hydroxy-5-(2-methyl-1H-imidazol-5-yl) pyrimidine-2,4(1H,3H)-dione] | 61.2% | 38.8% | 76.1 µM | 10.9 ± 0.8 µM | 215 °C (dec.) | 14.3% | > 100 µM | weak activity | 85.7% | 30.7 ± 3.4 µM | 8.01 ± 0.01 µM | competitive inhibition | 0.38 | 23.01 | – | – | – | –
3 | Cc1ncc(-c2c(O)[nH]c(=S)[nH]c2=O)[nH]1 [Compound 4, 6-hydroxy-5-(2-methyl-1H-imidazol-5-yl)-2-thioxo-2,3-dihydropyrimidin-4(1H)-one] | 60.5% | 39.5% | 75.7 µM | 17.1 ± 0.6 µM | – | 17.9% | > 100 µM | weak activity | 82.1% | 31.1 ± 1.3 µM | 15.02 ± 0.04 µM | competitive inhibition | 0.43 | 23.01 | – | – | – | –
4 | Cc1ncc(-c2c(O)[nH]c(=O)[nH]c2=O)n1CCOC(=O)c1ccccc1 [Compound 5, 2-(5-(6-hydroxy-2,4-dioxo-1,2,3,4-tetrahydropyrimidin-5-yl)-2-methyl-1H-imidazol-1-yl) ethyl benzoate] | 82.1% | 17.9% | 53.6 µM | – | – | 20.5% | > 100 µM | – | 79.5% | – | – | – | – | – | Inactive | – | – | Anticancer/cytotoxic activity in MDA-MB-231 in words (MDA-MB-231; MTT): excellent anticancer/cytotoxic activity; hCA-IX IC50 ± SEM (hCA-IX [1]): Inactive; Toxicity to normal breast cells (MCF-10A) in words (MCF-10A; MTT): no toxicity
5 | Cc1ncc(-c2c(O)n(C)c(=O)n(C)c2=O)[nH]1 [Compound 6, 6-hydroxy-1,3-dimethyl-5-(2-methyl-1H-imidazol-5-yl) pyrimidine-2,4(1H,3H)-dione] | 58.4% | 41.6% | 79.4 µM | – | – | 13.2% | > 100 µM | – | 86.8% | – | – | – | – | – | Inactive | – | – | hCA-IX IC50 ± SEM (hCA-IX [1]): Inactive
6 | Cc1ncc(-c2c(O)[nH]c(=S)[nH]c2=O)n1CCOC(=O)c1ccccc1 [Compound 7, 2-(5-(6-hydroxy-4-oxo-2-thioxo-1,2,3,4-tetrahydropyrimidin-5-yl)-2-methyl-1H-imidazol-1-yl) ethyl benzoate] | 69.2% | 30.8% | 64 µM | 9.6 ± 0.2 µM | 225 to 230 °C | 13.2% | > 100 µM | – | 86.8% | – | 7.32 ± 0.02 µM | competitive inhibition | – | 23.01 | Inactive | 64 µM | selective inhibitors of hCA-IX | Inhibitory activity for hCA-IX in words (hCA-IX [1]): strong inhibitory activity
7 | Cc1ncc(-c2c(O)[nH]c(=O)[nH]c2=O)n1CCO [Compound 8, 6-hydroxy-5-(1-(2-hydroxyethyl)-2-methyl-1H-imidazol-5-yl) pyrimidine-2,4 (1H, 3H)-dione] | 77.8% | 22.2% | 55.6 µM | 32.2 ± 1 µM | – | 15.5% | > 100 µM | – | 84.5% | – | – | – | – | – | Inactive | – | selective inhibitors of hCA-IX | Inhibitory activity for hCA-IX in words (hCA-IX [1]): comparatively weak activity
8 | Cc1ncc(-c2c(O)[nH]c(=S)[nH]c2=O)n1CCO [Compound 9, 6-hydroxy-5-(1-(2-hydroxyethyl)-2-methyl-1H-imidazol-5-yl)-2-thioxo-2,3-dihydropyrimidin-4(1H)-one] | 73.5% | 26.5% | 58.6 µM | 19.9 ± 0.8 µM | – | 13.2% | > 100 µM | weak activity | 84.5% | 27.5 ± 1.3 µM | 17.02 ± 0.02 µM | competitive inhibition | 0.47 | 23.01 | – | 58.6 µM | – | –
9 | Cc1ncc(-c2c(O)n(C)c(=O)n(C)c2=O)n1CCO [Compound 10, 6-hydroxy-5-(1-(2-hydroxyethyl)-2-methyl-1H-imidazol-5-yl)-1,3-dimethylpyrimidine-2,4(1H,3H)-dione] | 75.5% | 24.5% | 60.9 µM | 14.8 ± 0.1 µM | 163 to 165 °C | 15.1% | > 100 µM | – | 84.9% | – | 13.24 ± 0.03 µM | competitive inhibition | 0.40 | 23.01 | Inactive | – | selective inhibitors of hCA-IX | –
10 | Cc1ncc(-c2c(O)n(C)c(=O)n(C)c2=O)n1CCOC(=O)c1ccccc1 [Compound 11, 2-(5-(6-hydroxy-1,3-dimethyl-2,4-dioxo-1,2,3,4-tetrahydropyrimidin-5-yl)-2-methyl-1H-imidazol-1-yl) ethyl benzoate] | 68.2% | 31.8% | 63.1 µM | 11.9 ± 0.3 µM | 180 to 185 °C | 12.1% | > 100 µM | potent inhibitory activity | 87.9% | 15.3 ± 0.3 µM | 8.32 ± 0.05 µM | competitive inhibition | 0.42 | 23.01 | – | 63.1 µM | selective inhibitors of hCA-IX | Ki (hCA-II [2]): 12.58 ± 0.04 µM; Type of Inhibition (hCA-II) (hCA-II [2]): competitive inhibition; Kmapp (hCA-II) (hCA-II [2]; Michaelis–Menten constant in the presence of inhibitors): 0.14; Vmaxapp (hCA-II) (hCA-II [2]): 19.32
